Test results from ChEMBL document CHEMBL1201862, “PubChem BioAssay data set” (2004).
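Cells were grown in 96-well plates and exposed to each compound for 48 hours at five concentrations; endpoints were interpolated linearly between bracketing concentrations, or set to the highest concentration if not reached. GI50 = concentration required for 50% inhibition of growth.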 The source made the active and inactive calls. Cut-off read from the data, not from the text of the source: active = GI50 up to about 1.1 µM and inactive = higher.

Assays:
Experiment in all cases: DTP human tumour cell line panel, 48 h
A549 = tested on: A549
EKVX = tested on: EKVX
HL-60 = tested on: HL-60
HOP-92 = tested on: HOP-92
K562 = tested on: K562
M14 = tested on: M14
MOLT-4 = tested on: MOLT-4
NCI-H23 = tested on: NCI-H23
SF-295 = tested on: SF-295
SK-MEL-28 = tested on: SK-MEL-28
SK-MEL-5 = tested on: SK-MEL-5
SN12C = tested on: SN12C
TK-10 = tested on: TK-10
U-251 = tested on: U-251
UACC-257 = tested on: UACC-257
SR = tested on: SR

Measured: GI50

O=C1CCCC/C1=C1\C(=O)Nc2cc(F)ccc21
inactive: A549 > 100 µM | EKVX > 100 µM | HL-60 > 100 µM | HOP-92 > 100 µM | K562 > 100 µM | M14 > 100 µM | MOLT-4 > 100 µM | NCI-H23 > 100 µM | SF-295 > 100 µM | SK-MEL-28 > 100 µM | SK-MEL-5 > 100 µM | SN12C > 100 µM | TK-10 > 100 µM | U-251 > 100 µM | UACC-257 > 100 µM

[O-][n+]1c(-c2ccccc2)c2nc3ccccc3nc2c2ccccc21
inactive: A549 > 100 µM | EKVX > 100 µM | HOP-92 > 100 µM | K562 > 100 µM | M14 > 100 µM | MOLT-4 > 100 µM | NCI-H23 > 100 µM | SF-295 > 100 µM | SK-MEL-28 > 100 µM | SK-MEL-5 > 100 µM | SN12C > 100 µM | TK-10 > 100 µM | U-251 > 100 µM | UACC-257 > 100 µM

C/C(CC(=O)Nc1ccc(C)c(C)c1)=N\NC(N)=S
inactive: A549 > 100 µM | EKVX > 100 µM | HL-60 > 100 µM | HOP-92 > 100 µM | K562 > 100 µM | M14 > 100 µM | MOLT-4 > 100 µM | NCI-H23 > 100 µM | SF-295 > 100 µM | SK-MEL-28 > 100 µM | SK-MEL-5 > 100 µM | TK-10 > 100 µM | U-251 > 100 µM | UACC-257 > 100 µM

CNS(=O)(=O)NN(C)S(=O)(=O)c1ccc2ccccc2c1
inactive: A549 > 100 µM | EKVX > 100 µM | HL-60 > 100 µM | K562 > 100 µM | M14 > 100 µM | MOLT-4 > 100 µM | NCI-H23 > 100 µM | SF-295 > 100 µM | SK-MEL-5 > 100 µM | SN12C > 100 µM | SR > 100 µM | TK-10 > 100 µM | U-251 > 100 µM | UACC-257 > 100 µM

COc1ccc(CN2CC(C)(C)C2=O)c(OC)c1
inactive: A549 > 100 µM | EKVX > 100 µM | HL-60 > 100 µM | HOP-92 > 100 µM | K562 > 100 µM | M14 > 100 µM | MOLT-4 > 100 µM | NCI-H23 > 100 µM | SF-295 > 100 µM | SK-MEL-28 > 100 µM | SK-MEL-5 > 100 µM | SN12C > 100 µM | TK-10 > 100 µM | U-251 > 100 µM | UACC-257 > 100 µM

CCOC(=O)NC(=O)c1cn(C2OC(CO)C(O)C2O)c(=O)[nH]c1=O (configuration not stated)
inactive: A549 > 100 µM | EKVX > 100 µM | HL-60 > 100 µM | K562 > 100 µM | M14 > 100 µM | MOLT-4 > 100 µM | SF-295 > 100 µM | SK-MEL-28 > 100 µM | SK-MEL-5 > 100 µM | SN12C > 100 µM | SR > 100 µM | U-251 > 100 µM | UACC-257 > 100 µM

CCOc1ccc(NC(=O)CC2SC(Nc3ccc(C)cc3)=NC2=O)cc1 (configuration not stated)
inactive: A549 > 100 µM | EKVX > 100 µM | M14 > 100 µM | MOLT-4 35.2 µM | NCI-H23 > 100 µM | SF-295 > 100 µM | SK-MEL-28 > 100 µM | SK-MEL-5 > 100 µM | SN12C > 100 µM | SR 50.9 µM | TK-10 > 100 µM | U-251 > 100 µM | UACC-257 > 100 µM

Fc1ccc2c(c1)SC1Oc3ccccc3-c3c1c-2nn3-c1ccccc1 (configuration not stated)
inactive: A549 > 100 µM | EKVX > 100 µM | HL-60 > 100 µM | HOP-92 > 100 µM | K562 > 100 µM | MOLT-4 > 100 µM | NCI-H23 > 100 µM | SF-295 > 100 µM | SK-MEL-28 > 100 µM | TK-10 > 100 µM | U-251 > 100 µM | UACC-257 > 100 µM

O=C1OC(O)C(Oc2ccc(Cl)cc2)=C1Cl (configuration not stated)
inactive: A549 > 100 µM | EKVX > 100 µM | HL-60 > 100 µM | HOP-92 > 100 µM | K562 > 100 µM | M14 > 100 µM | MOLT-4 > 100 µM | NCI-H23 > 100 µM | SF-295 > 100 µM | SK-MEL-28 > 100 µM | SN12C > 100 µM | TK-10 > 100 µM | U-251 > 100 µM | UACC-257 > 100 µM

Clc1ccccc1C1=NN(c2ccccc2)C2c3cc(Br)ccc3OCC12 (configuration not stated)
inactive: A549 > 100 µM | EKVX 89.9 µM | HL-60 > 100 µM | HOP-92 > 100 µM | K562 > 100 µM | MOLT-4 96.4 µM | NCI-H23 > 100 µM | SF-295 > 100 µM | SK-MEL-28 > 100 µM | TK-10 > 100 µM | U-251 > 100 µM | UACC-257 > 100 µM

O=C(CC1(O)C(=O)Nc2ccc(Br)cc21)c1ccc(Cl)cc1Cl (configuration not stated)
inactive: A549 92 µM | EKVX > 100 µM | HL-60 19.1 µM | K562 39.6 µM | M14 34.8 µM | MOLT-4 26.3 µM | NCI-H23 53.2 µM | SF-295 64.7 µM | SK-MEL-28 44 µM | SN12C 35.6 µM | SR 23.7 µM | TK-10 56.2 µM | U-251 49.2 µM | UACC-257 30.9 µM

COc1ccc2c(c1)CC[C@@H]1C2CC[C@]2(C)C(=N\O)/C(=N/O)CC12 (some centres not stated)
inactive: A549 10.1 µM | EKVX 18.7 µM | HL-60 14.2 µM | HOP-92 16.1 µM | K562 8.32 µM | M14 13.4 µM | MOLT-4 4.79 µM | NCI-H23 10.2 µM | SF-295 10 µM | SK-MEL-5 12.7 µM | SN12C 17.7 µM | TK-10 18.2 µM | U-251 15.4 µM | UACC-257 16.7 µM

O=C(CC(=O)C1CCOC1=O)C(=O)Nc1ccc(Cl)cc1 (configuration not stated)
inactive: A549 > 100 µM | EKVX > 100 µM | HL-60 > 100 µM | HOP-92 > 100 µM | K562 > 100 µM | M14 > 100 µM | NCI-H23 > 100 µM | SF-295 > 100 µM | SK-MEL-28 > 100 µM | SK-MEL-5 > 100 µM | SN12C > 100 µM | TK-10 > 100 µM | U-251 > 100 µM | UACC-257 > 100 µM

Cc1cc(N(CCC#N)CCC#N)ccc1/C=C(\NC(=O)/C=C/c1ccccc1)C(=O)N=[N+]=[N-]
inactive: A549 > 100 µM | EKVX > 100 µM | HL-60 > 100 µM | K562 > 100 µM | M14 > 100 µM | MOLT-4 > 100 µM | NCI-H23 > 100 µM | SF-295 17.2 µM | SK-MEL-28 > 100 µM | SK-MEL-5 > 100 µM | SN12C > 100 µM | TK-10 > 100 µM | U-251 43.1 µM | UACC-257 > 100 µM
